In series [1] the test system is C. difficile toxin A-induced inflammation and secretion in rabbit ileal loops. Format: in vivo, New Zealand white rabbits. The note with it: rabbit, in vivo. The method, then: Materials and Methods: New Zealand white rabbits weighing about 2 kg are fasted overnight. Under anesthesia with ketamine (60-80 mg/kg) and xylazine (5-10 mg/kg) administered intramuscularly, a midline abdominal incision is performed to expose the small bowel. After the ileum is flushed, four-cm loops are ligated using double ties with a 1 cm interval between loops. Each of the control loops is injected intraluminally with 1 mL solution of PBS with either C. difficile toxin A (toxin A) (Techlab, Blacksburg, Va.) at 10 μg/mL. Loops from another set of rabbits are treated with the adenosine A2A agonists, JMR 193 (ATL 193) (10 nM, 100 nM, or 1 uM doses) or ATL 146e ([…], 100 nM, 1 uM doses) immediately before the enterotoxin is administered. In addition a rabbit is treated with A2A agonist, ATL 313 (100 nM), alone and another rabbit treated with ATL 313 with alanyl-glutamine (25 mM). After 5 hours of incubation, the ligated small intestinal loops are removed. The length of each ligated ileal segment is measured and intraluminal fluid was quantified. Volume to length ratio, V/L (mL/cm), per loop is calculated. Samples of intestinal stained with hematoxylin-eosin and graded from 0 (none) to 4 (worst) based on the degree of mucosal disruption, increase in cellularity and intensity of vascular congestion.

The test system of series [2] is Toxin A-induced secretion in rabbit ileal loops. The experiment in a line: Rabbit ileal loops, toxin A-induced secretion (Example 3). Format: in vivo, New Zealand white rabbits. The source says:
Rabbit Ileal Loops: The animal experiment protocol was approved by the Animal Care and Use Committee at the University of Virginia. Eight New Zealand white rabbits weighing between 2.5-3 kg were used for this experiment. Each rabbit was fasted overnight. On the day of the experiment, the rabbits were anesthetized intramuscularly using a ketamine and xylazine solution in a 2:1 ratio. An intravenous line was placed in the ear vein of each rabbit for administration of the adenosine analog, ATL 370 (Adenosine Therapeutics) or a phosphate buffered saline placebo (PBS). Once anesthetized, a midline abdominal incision was made and the ileum was exposed. A measured amount of ileum was injected with 5 mL of PBS to flush any remaining fecal material. After the ileum was flushed, 10 loops of 2.5-5 cm each were ligated using double ties, with 0.5-1 cm of space between each loop.
Once the bowel was exposed and ligated, each rabbit received a 250 μL IV injection of PBS (Toxin A and Toxin A/Alanyl glutamine groups) or 1.5 ug/250 μL of ATL 370 (Toxin A/Adenosine and Toxin A/Adenosine/Alanyl-glutamine groups). An additional dose of either PBS or ATL 370 was administered 2 hours after the first dose for a total of 2 doses. Each dose was followed by a 250-500 μL heparin saline injection to prevent the IV from clotting.
A total of 79 loops were studied, of which 15 loops from 8 animals served as controls. Each of the control loops were injected intraluminally with 1 mL of a sterile PBS solution. The remaining 64 loops were injected intraluminally with 20 μg/500 μL of Toxin A (TechLab) and combined with either 500 μL PBS (Toxin A and Toxin A/Adenosine groups) or 500 μL of a […], 30 mM, 10 mM, or 3 mM alanyl-glutamine solution (Toxin A/Alanyl-glutamine and Toxin A/Adenosine/Alanyl-glutamine groups). The ileal loops were replaced intraperitoneally and the abdomimal incision was sutured. Sedation continued throughout the procedure and were euthanized after 4 hours.
Measurement of intestinal secretion: After 4 hours of incubation, the animals were euthanized and the ligated loops were immediately removed. The length of each loop was measured and incised and the intraluminal secretion was quantified. The volume to length ratio (V:L) was measured as milliliters per centimeter per loop. The gross description of intestinal fluid (serous, serosanguinous, hemorrhagic or purulent) was documented.

The test system is the same in series [3]. Described as above. Format: in vivo, New Zealand white rabbits. This is another data set of the same source.
Series [4] deals with murine ileal loops injected with Clostridium difficile toxin A (TxA). The experiment in a line: TxA-induced enteritis in ligated murine ileal loops: loop weight and secretion volume. Format: in vivo, mice. On the procedure: For this study, 174 male Swiss mice, 25-30 g body weight, from the animal colony of the Federal University of Ceara were used. The animals received water and food ad libitum.
(§1) Mice were fasted overnight, but allowed access to water, and then anesthetized with ketamine and xylazine (60 and 5 mg/Kg intramuscularly, respectively). Through a midline laparotomy, one 4-cm ileal loop was ligated and injected with either 0.1 ml of PBS pH 7.4 (control) or buffer containing TxA (1-10 μg). The abdomen was closed, and the animals were allowed to regain consciousness. Three hours after administration of TxA, mice were sacrificed and the intestinal loops were removed. The loop length, weight, and fluid volume were recorded. A portion of the loop was frozen at −70° C. for measurement of myeloperoxidase (MPO) and ADA activities and TNF-α concentration. The remaining tissue was fixed in 10% formalin and embedded in paraffin, and sections were stained with hematoxylin and eosin for histological grading of ileal inflammation. Some mice were injected with ATL 313 ([…] final concentration) immediately followed by PBS or TxA (5 μg); another group was injected with ZM241385 (5 nM), the selective A2A AR antagonist, immediately followed by PBS or ATL 313 (5 nM)+TxA (5 μg) in the ileal loop. In another experiment, TxA (5 μg) was injected into the ileal loop, the abdomen was closed, and, 30 min later, the abdomen was reopened and ATL 313 (5 nM) administered.

Series [5] concerns Clostridium difficile toxin A (TxA)-induced histological alterations. The experiment in a line: Histological grading of ileal inflammation, murine ileal loops. Type of series: in vivo, mice. The method, then: as §1
The severity of inflammation was scored in coded slides by a pathologist on a scale of 1 (mild) to 3 (severe) for epithelial damage, edema, and neutrophil infiltration.

Series [6] has as its system Clostridium difficile toxin A-induced TNF-α production. Put plainly: Quantification of TNF-α by ELISA in ileal tissue. Type of series: in vivo, mice. As to conditions: ZM241385 + ATL 313 + TxA. On the procedure: as §1, with “In another experiment, TxA (5 μg) was injected into the ileal loop, the abdomen was closed, and, 30 min later, the abdomen was reopened and ATL 313 (5 nM) administered.” left out
Ileal tissue was harvested from animals in order to measure TNF-α concentration by enzyme-linked immunosorbent assay (ELISA). The results are expressed as pg/mL of TNF-α.

Where [7] appears, read: ZM241385 5 nM + ATL 313 5 nM + TxA 5 μg.

Molecules are shown by their SMILES. Peptide text beside a SMILES is read from it.

As for `CCNC(=O)C1OC(n2cnc3c(N)nc(C#CCC4CCC(C(=O)OC)CC4)nc32)C(O)C1O` (stereo not drawn) [ATL 146e, 4-{3-[6-Amino-9-(5-ethylcarbamoyl-3,4-dihydroxy-tetrahydro-furan-2-yl)-9H-purin-2-yl]-prop-2-ynyl}-cyclohexanecarboxylic acid methyl ester], in series [1], the “inflammation induced by toxin A (histology score 0 to 4)” value is “reduced” and the “toxin A-induced secretion (volume to length ratio)” value was “not consistently ameliorated”.
Regarding `Nc1nc(C#CCC2CCN(C(=O)Oc3ccc(Cl)cc3)CC2)nc2c1ncn2C1OC(C(=O)NC2CC2)C(O)C1O` (stereo not drawn) [ATL 370, 4-{3-[6-Amino-9-(5-cyclopropylcarbamoyl-3,4-dihydroxy-tetrahydro-furan-2-yl)-9H-purin-2-yl]-prop-2-ynyl}-piperidine-1-carboxylic acid 4-chloro-phenyl ester], the “V:L ratio” value in series [2] (ATL 370 IV 1.5 ug x 2 doses + intraluminal toxin A only, n=8, p=0.35 vs toxin A) turned out to be 0.44 mL/cm; in series [2] (ATL 370 IV + toxin A + alanyl-glutamine 3 mM), 0.21 mL/cm; in series [2] (ATL 370 IV + toxin A + alanyl-glutamine 10 mM), 0.20 mL/cm; in series [2] (ATL 370 IV + toxin A + alanyl-glutamine 30 mM) it was 0.14 mL/cm; in series [3] (ATL 370 IV + toxin A + alanyl-glutamine 100 mM, n=4, p<0.001 vs toxin A), 0.05 mL/cm. The loops purulent in series [2] (ATL 370 IV + toxin A + alanyl-glutamine, all doses (7/16)) was determined as 44%. Moreover, the “number of hemorrhagic loops” value in series [2] (ATL 370 IV + toxin A + alanyl-glutamine, all doses (16 loops)) is “one”. Further, the “loops either hemorrhagic or purulent” value in series [2] (ATL 370 IV + toxin A only (10/16)) amounted to 63%.
In the case of `CCNC(=O)C1OC(n2cnc3c(N)nc(C#CCC4CCC(COC(C)=O)CC4)nc32)C(O)C1O` (stereo not drawn) [JMR 193, Acetic acid 4-{3-[6-amino-9-(5-ethylcarbamoyl-3,4-dihydroxy-tetrahydro-furan-2-yl)-9H-purin-2-yl]-prop-2-ynyl}-cyclohexylmethyl ester], in series [1], the “inflammation induced by toxin A (histology score 0 to 4)” value is “reduced” and the “toxin A-induced secretion (volume to length ratio)” value is given as “not consistently ameliorated”.
For the compound `Nc1nc(NCCc2ccc(O)cc2)nc2nc(-c3ccco3)nn12` [ZM241385, 4-[2-(7-Amino-2-furan-2-yl-[1,2,4]triazolo[1,5-a][1,3,5]triazin-5-ylamino)-ethyl]-phenol, reference compound], the “secretion volume/ileal loop length ratio” value in series [4] (setting [7]) is reported as “significantly reversed the protective effect of ATL 313”. Besides, the “weight/ileal loop length ratio” value in series [4] (setting [7]) was “significantly reversed the protective effect of ATL 313”. Further, the “secretion volume/ileal loop length” value in series [4] (ZM241385 alone, no TxA, PBS=1.25±1.25) worked out at 0.0 ± 0.0 µL/cm. This compound also showed a weight/ileal loop length in series [4] (ZM241385 alone, no TxA, PBS=34.5±3.2) of 19.9 ± 0.9 mg/cm. In addition, the median injury score in series [5] (ZM241385 + ATL 313 + TxA, median, range) is 2.5; in series [5] (compound alone, no TxA, median(range)) it was 0(0-0). Further, in series [6], the “TNF-α production in ileal tissue” value is “blocked ATL313 action”.
Turning to `C[C@H](N)C(=O)N[C@@H](CCC(N)=O)C(=O)O` [alanyl-glutamine] (H-Ala-Gln-OH), the “V:L ratio” value in series [2] (toxin A mixed with alanyl-glutamine 3 mM, intraluminal, 4 hours) turned out to be 0.96 mL/cm; in series [2] (toxin A mixed with alanyl-glutamine 10 mM, intraluminal, 4 hours), 0.84 mL/cm; in series [2] (toxin A mixed with alanyl-glutamine 30 mM, intraluminal, 4 hours) it was 0.67 mL/cm; in series [3] (toxin A mixed with alanyl-glutamine 100 mM, intraluminal, 4 hours) it was 0.44 mL/cm. For the same compound, in series [2] (toxin A/alanyl-glutamine loops (11/15)), the “loops hemorrhagic, purulent, or a combination of the two” value was found to be 73%.

For the origin of these results see patent US20080312160A1, “METHOD OF TREATING ENTERITIS, […], AND DIARRHEA FROM C. DIFFICILE WITH AN A2A ADENOSINE RECEPTOR AGONIST” (priority 2007, published 2008).
